Measurements as given in patent publication US12570608B2, “Compound derived from quinoline, use of a compound, composition and method for the treatment or prophylaxis of a condition caused by a blood parasite” (FUNDÃÇAO OSWALDO CRUZ, priority 2019, dated 2026).
“And” between values parts separate entries of the source, which are not always exact repeats. Equal entries are not always repeated. Where two headings read alike, the source gives them in different places.

Columns and labels:
[1] = tested on: CQ-resistant strains; conditions: prior art; cited from earlier work
[2] = tested on: P. falciparum 3D7; assay: Antiplasmodial SYBR Green assay, CQ-sensitive strain; format: cell-based, Plasmodium falciparum; conditions: for IC50: Plasmodium falciparum; for Selectivity index 3D7: ratio between MDL50 and IC50, 3D7
Protocol: Each test was performed in triplicate in at least two different experiments.
(§1) Briefly, plates were centrifuged at 700 g for 5 min in room temperature to remove medium, washed with PBS, and incubated for 30 min with lysis buffer solution and SYBR Green I DNA dye (1:20000). The fluorescence of the uninfected erythrocytes was considered as background.
(§2) The half maximum inhibitory concentration of the drug (IC50) was estimated by curve fitting using software and compared with the parasite growth in the compound-free medium.

[3] = tested on: P. falciparum K1; assay: Antiplasmodial SYBR Green assay, multiresistant strain; format: cell-based, Plasmodium falciparum; conditions: for IC50: Plasmodium falciparum; for Antiplasmodial activity: K1 resistant strain, highest dose 10 μM; for Selectivity index K1: ratio between MDL50 and IC50, K1
Protocol: Freshly synchronized sorbitol ring stages (Lambros and Vanderberg, 1979) were immediately incubated with the test compounds at various concentrations (10-0.152 μM or 1.0-0.0152 μM) previously solubilized in 0.05% dimethyl sulfoxide (DMSO) (v/v). Each test was performed in triplicate in at least two different experiments.
The antiplasmodial activity of the compounds was measured by DNA labeling assay using the fluorescent probe SYBR Green (Smilkstein et al., 2004).
as §1, with “background. Fluorescence was measured in a fluorimeter at 485/535 nm.” for “background.”
as §2

[4] = tested on: BGM-VN; assay: Cytotoxicity, MTT assay; format: cell-based; conditions: 24 h incubation
Protocol: The compounds (20 μL) at various concentrations (400-1.0 μM) were placed in the 96-well plates, incubated with the cultured cells for 24 h under a 5%CO2 atmosphere at 37° C., and then a 3-(4,5-dimethylthiazol-2-yl)-2,5-diphenyltetrazolium bromide (MTT) solution ([…]; 20 μL/well for 3 h) was used to assess mitochondrial viability.
The supernatants were carefully removed and 100 μL of DMSO was added to each well and mixed to solubilize the formazan crystals. The optical density was determined at 570 nm. Cell viability was expressed as the percentage of the control absorbance in the untreated cells after subtracting the appropriate background. Each test was performed in triplicate in at least two different experiments.

[5] = tested on: P. berghei NK65; assay: P. berghei suppression test in mice; format: in vivo; conditions: for Survival of mice compared to the untreated control: Mann-Whitney test; for Parasitemia % reduction day 5 / Parasitemia % reduction day 7 / Parasitemia % reduction day 9 / Parasitemia % reduction day 11 / Parasitemia % reduction day 13 / Parasitemia % reduction day 15: three days, relative to untreated mice
Protocol: A P. berghei NK65 strain was obtained as a donation from New York University and maintained through weekly blood draws.
On days 5 to 15 after parasite inoculation, blood was taken from the tail of each mouse and used to prepare thin smears that were fixed with methanol, stained with Giemsa and examined microscopically (1000×) to determine parasitemia.
Parasite growth inhibition was determined relative to parasitemia in the untreated mice, considered to be 100% parasite growth. […] The experiments were performed twice.

[6] = tested on: P. falciparum K1; assay: Time course of inhibitory activity, microscopy of synchronized parasites; format: cell-based, Plasmodium falciparum; conditions: 10 times IC50 of 3D7 applied to K1; 0, 12, 24, 36 h
Protocol: The time course of inhibitory activity of the CQ analogues was also evaluated. The compounds were incubated at a concentration 10 times higher than the IC50 values obtained for the P. falciparum 3D7 sensitive strain with synchronized parasites. Morphological changes were then observed by microscopy after 0, 12, 24 and 36 hours after synchronization (FIG. 3). Parasites sensitive (3D7 strain) and resistant (K1 strain) to CQ were tested in parallel, and the antimalarial CQ was used as a control.

[7] = tested on: Indochina I; conditions: resistant strain Indochina I; verapamil; cited from earlier work
[8] = tested on: β-hematin formation; assay: Inhibition of β-hematin formation (lipid-catalysed heme crystallization); format: biochemical
Protocol: Briefly, drug stock solutions were prepared in DMSO, used at a final concentration of up to 30 mM A heme stock (10 mM) was made in DMSO and diluted to […] with 100 mM sodium acetate (pH 4.8).
The plates were incubated at 37° C. for 2 h to allow crystallization, followed by the addition of 100 μL of 200 mM sodium bicarbonate (pH 9.1) to solubilize any remaining monomeric heme. After incubation for 30 min at room temperature, the amount of solubilized monomeric heme was determined by measuring the absorbance at 405 nm.
Finally, 20 μL of 1 M sodium hydroxide was added to the plates to dissolve the crystals formed. The absorbance was read at 405 nm to determine the total amount of heme present in each well.
The inhibition of heme crystallization was determined as a function of the amount of monomeric heme that was not crystallized divided by the total amount of heme present in the test mixture. The results are expressed as IC50 values based on the percentage inhibition of β-hematin formation by compounds GIQ, CEQ, PCQ and DAQ. Each test was performed in triplicate in at least two different experiments.

[9] = CQ-sensitive strain 3D7, SYBR Green, ± SD, read-out: IC50 (nM ± SD) P.falciparum 3D7
[10] = multiresistant strain K1, SYBR Green, ± SD, read-out: IC50 (nM ± SD) P.falciparum K1
[11] = 50 mg/kg orally, daily for three days
[12] = 3D7, read-out: IC50 (nM ± SD) P.falciparum 3D7
[13] = K1, read-out: IC50 (nM ± SD) P.falciparum K1
[14] = CQ 20 mg/kg, daily for three days

| Structure (SMILES) | Selectivity index 3D7 [2] | MLD50 (μM) BGM-VN [4] | Survival [5, 11] | Survival of mice compared to the untreated control ([5]; 50 mg/kg orally) | Parasitemia day 5 [5, 11] | Parasitemia day 7 [5, 11] | Parasitemia % reduction day 7 ([5]; 50 mg/kg orally) | Parasitemia day 9 [5, 11] | Parasitemia % reduction day 9 ([5]; 50 mg/kg orally) | Parasitemia day 11 [5, 11] | Parasitemia % reduction day 11 ([5]; 50 mg/kg orally) | Parasitemia day 13 [5, 11] | Parasitemia % reduction day 13 ([5]; 50 mg/kg orally) | Parasitemia day 15 [5, 11] | Parasitemia % reduction day 15 ([5]; 50 mg/kg orally) | IC50 [2, 12] | IC50 [3, 13] | Selectivity index K1 [3] | other results |
| --- | --- | --- | --- | --- | --- | --- | --- | --- | --- | --- | --- | --- | --- | --- | --- | --- | --- | --- | --- |
| CCN(CC)CCCNc1ccnc2cc(Cl)ccc12 [AQ-13] |  |  |  |  |  |  |  |  |  |  |  |  |  |  |  |  |  |  | Activity against CQ-resistant strains (literature, words) [1]: shows antimalarial activity |
| CCN(CC)Cc1cc(Nc2ccnc3cc(Cl)ccc23)ccc1O [AQ] |  |  |  |  |  |  |  |  |  |  |  |  |  |  |  |  |  |  | Activity against CQ-resistant strains (literature, words) [1]: cross-resistance with CQ |
| NCCNc1ccnc2cc(Cl)ccc12 [CEQ] | 655 | 179 ± 40 µM | 26 ± 6 | significantly higher | 0.00 | 0.00 | 100% | 0.00 | 100% | 0.00 | 100% | 0.57 | 94% | 4 | 80% |  |  |  | IC50 [2, 9]: 273 ± 12 nM; IC50 [3, 10]: 218 ± 44 nM; Parasitemia % reduction day 5 ([5]; 50 mg/kg orally): 100% |
| CCN(CC)CCCC(C)Nc1ccnc2cc(Cl)ccc12 (stereo not shown) [CQ, chloroquine, reference compound] |  |  |  |  |  |  |  |  |  |  |  |  |  |  |  | 36 ± 12 nM | 177 ± 20 nM |  | Parasitemia until the last day of evaluation ([5]; CQ 20 mg/kg): did not show parasitemia; Survival ([5]; CQ 20 mg/kg): survived until the last day of the experiment; Survival [5, 14]: >30; Parasitemia day 5 [5, 14]: 0.00; Parasitemia % reduction day 5 ([5]; CQ 20 mg/kg): 100%; Parasitemia day 7 [5, 14]: 0.00; Parasitemia % reduction day 7 ([5]; CQ 20 mg/kg): 100%; Parasitemia day 9 [5, 14]: 0.00; Parasitemia % reduction day 9 ([5]; CQ 20 mg/kg): 100%; Parasitemia day 11 [5, 14]: 0.00; Parasitemia % reduction day 11 ([5]; CQ 20 mg/kg): 100%; Parasitemia day 13 [5, 14]: 0.00; Parasitemia % reduction day 13 ([5]; CQ 20 mg/kg): 100%; Parasitemia day 15 [5, 14]: 0.00; Parasitemia % reduction day 15 ([5]; CQ 20 mg/kg): 100%; Time course / stage of action, morphology [6]: did not block complete parasite development; Improvement of IC50 after PfCRT inhibition [7]: 10 × |
| CCN(CC)CC#CCNc1ccnc2cc(Cl)ccc12 [DAQ] | 32195 | 1481 ± 39 µM | 28 ± 1 | significantly higher | 0.00 | 0.00 | 100% | 0.00 | 100% | 0.00 | 100% | 0.77 | 92% | 3.67 | 82% | 46 ± 4 nM | 50 ± 3 nM | 29620 | Selectivity index (SI) quoted in text ([2]; strain not stated): 55.750; Antiplasmodial activity [3]: active; Parasitemia % reduction day 5 ([5]; 50 mg/kg orally): 100%; β-hematin inhibition, comparison [8]: lower than that of CQ |
| O=C(O)CNc1ccnc2cc(Cl)ccc12 [GIQ] | Inactive | >1000 µM |  |  |  |  |  |  |  |  |  |  |  |  |  |  |  | Inactive | Antiplasmodial activity ([2]; 3D7, highest dose 10 μM): inactive; IC50 [2, 9]: > 10000 nM; Antiplasmodial activity [3]: inactive; IC50 [3, 10]: > 10000 nM; β-hematin inhibition, comparison [8]: least potent |
| C#CCNc1ccnc2cc(Cl)ccc12 [PCQ] | 1079 | 407 ± 185 µM | 17 ± 8 | not increased | 1.04 | 4.83 | 10% | 5.75 | 8% | 7.5 | 32% | 7.0 | 32% | 34.5 | 0% | 377 ± 14 nM | 405 ± 32 nM | 1005 | Parasitemia % reduction day 5 ([5]; 50 mg/kg orally, 50 mg/kg): 70% and 73% |
